Measured values published in patent US20150119388A1, “NOVEL PRO- AND CODRUG DERIVATIVES FOR NANOPARTICLE DELIVERY OF SELECT ANTICANCER AGENTS FORMED USING RAPIDLY CLEAVABLE PHENOLIC ESTER BRIDGES” (THE CHILDREN'S HOSPITAL OF PHILADELPHIA, priority 2012, published 2015).

Experiments:
[1] = tested on: carboxylesterase; details: carboxylesterase-mediated; rest eliminated through alternative pathways; cited from earlier work
[2] = tested on: SY5Y-TrkB human neuroblastoma cells; experiment: Tumor growth inhibition in the murine xenograft model of neuroblastoma; type: in vivo, athymic nu/nu mice; details: three weeks
Method: For xenograft studies, athymic nu/nu mice (nine animals per group) were injected in the flank with 10^7 SY5Y-TrkB human neuroblastoma cells in 0.3 mL […]™ matrix (BD Biosciences, Franklin Lakes, N.J.). Treatment was started when the average SY5Y-TrkB tumor size was 0.2 cm^3. Nanoparticles were administered intravenously through the tail vein twice a week at a dose equivalent to 10 mg/kg of SN-38 per injection for comparison against a ‘no treatment’ control and a clinically used irinotecan formulation (CAMPTOSAR®, Pfizer, given orally five times a week at a therapeutically relevant dose of 10 mg/kg as described in Thompson J. et al., Efficacy of oral irinotecan against neuroblastoma xenografts, Anticancer Drugs. 1997 April; 8(4):313-22). Tumor size in each group was measured daily over a period of three weeks. […] The error bars in FIG. 2A represent standard deviations.
Tumor growth inhibition by PLA-PEG nanoparticles loaded with an SN-38 conjugate with tocopherol succinate (made according to Example 7) was administered over 4 weeks at indicated dose regimens (each injection equivalent to 10 mg SN-38/kg) to animals xenografted as in Example 8. The effect is shown in comparison to irinotecan administered 5 times a week for 4 weeks at the same dose per injection. Animals were sacrificed after their tumors reached 3 cm^3. […]

## CCc1c2c(nc3ccc(OC(=O)N4CCC(N5CCCCC5)CC4)cc13)-c1cc3c(c(=O)n1C2)COC(=O)[C@]3(O)CC [irinotecan]
[1]
  rate of conversion to the pharmacologically active SN-38: less than 10%
[2]; CAMPTOSAR given orally five times a week at 10 mg/kg (50 mg/kg per week)
  efficacy on tumor size (FIG. 2A): showed efficacy vs. ‘no treatment’ control
[2]; CAMPTOSAR given orally five times a week at 10 mg/kg, vs 'no treatment' control
  animal survival (FIG. 2B): significantly improved animal survival compared with the control group
